Measured values reported in US9682938B2, “Pyrazolone derivatives as nitroxyl donors” (Cardioxyl Pharmaceuticals, Inc., priority 2014, dated 2017).

How the values were obtained:
Type in all cases: in vitro ADME
[1] = In vitro plasma stability, rat plasma; conditions: male, pH 7.4, 5 μM, 37° C., sampling 0-360 minutes, read-out: T1/2 Rat
Procedure: (§1) Certain compounds from Table 1 were tested for their stability in plasma. The assay system comprised plasma from rat, dog or human (at least 3 donors, male, pooled) at pH 7.4, and (ii) an anticoagulant (sodium heparin or sodium citrate). Each test compound (5 μM) was incubated in plasma at 37° C. on a THERMOMIXER® with shaking. Three samples (n=3) were taken at each of seven sampling time points: 0, 10, 30, 60, 90, 180 and 360 minutes. The samples were immediately combined with 3 volumes (i.e., 3 times the volume of plasma) of acetonitrile containing 1% formic acid and an internal standard to terminate the reaction. AB SCIEX API 3000 LC-MS/MS analysis of the test compounds was performed without a standard curve. Plasma half-lives (T1/2) of the test compounds were determined from graphs of the percent remaining values using the peak area response ratio.

[2] = In vitro plasma stability, dog plasma; conditions: male, pH 7.4, 5 μM, 37° C., sampling 0-360 minutes, read-out: T1/2 Dog
Procedure: as §1

[3] = In vitro plasma stability, human plasma; conditions: male, pH 7.4, 5 μM, 37° C., sampling 0-360 minutes, read-out: T1/2 Human
Procedure: as §1

Row | half-life at 5 μM [1] [min] | half-life at 5 μM [2] [min] | half-life at 5 μM [3] [min] | Structure (SMILES)
1 | 9 | 12 | 11 | CO/N=C(\C)C1(NO)C(=O)N(C)N=C1c1ccccc1 (stereo not drawn) [Compound 46, 4-(hydroxyamino)-4-(1-(methoxyimino)ethyl)-2-methyl-5-phenyl-2,4-dihydro-3H-pyrazol-3-one]
2 | 148 | 84 | 76 | CN1N=C(c2ccc(C(=O)N3CCOCC3)cc2)C(C)(NO)C1=O (stereo not drawn) [Compound 81, 4-(Hydroxyamino)-1,4-dimethyl-3-[4-(morpholine-4-carbonyl)phenyl]-4,5-dihydro-1H-pyrazol-5-one]
3 | 11 | 6 | 6 | CO/N=C(\C)C1(NO)C(=O)N(C)N=C1c1ccc(C(=O)N(C)C)cc1 (stereo not drawn) [Compound 123, 4-[4-(Hydroxyamino)-4-[1-(methoxyimino)ethyl]-1-methyl-5-oxo-4,5-dihydro-1H-pyrazol-3-yl]-N,N-dimethylbenzamide]
4 | 88 | 39 | 65 | CN1N=C(c2ccc([S+](C)[O-])cc2)C(C)(NO)C1=O (stereo not drawn) [Compound 11, 4-(hydroxyamino)-2,4-dimethyl-5-(4-(methylsulfinyl)phenyl)-2,4-dihydro-3H-pyrazol-3-one]
5 | 85 | 49 | 49 | Cc1cc(C2=NN(C)C(=O)C2(C)NO)cc(C)c1S(C)(=O)=O (stereo not drawn) [Compound 79, 4-(Hydroxyamino)-3-(4-methanesulfonyl-3,5-dimethylphenyl)-1,4-dimethyl-4,5-dihydro-1H-pyrazol-5-one]
6 | 7 | 8 | 6 | CCO/N=C(\C)C1(NO)C(=O)N(C)N=C1C (stereo not drawn) [Compound 106, 4-[1-(Ethoxyimino)ethyl]-4-(hydroxyamino)-1,3-dimethyl-4,5-dihydro-1H-pyrazol-5-one]
7 | 79 | 44 | 76 | CN1N=C(c2ccc([S+]([O-])C(F)(F)F)cc2)C(C)(NO)C1=O (stereo not drawn) [Compound 35, 4-(hydroxyamino)-2,4-dimethyl-5-(4-((trifluoromethyl)sulfinyl)phenyl)-2,4-dihydro-3H-pyrazol-3-one]
8 | 175 | 100 | 130 | CC1=NN(c2ccc(S(C)(=O)=O)cc2)C(=O)C1(C)NO (stereo not drawn) [Compound 33, 4-(hydroxyamino)-4,5-dimethyl-2-(4-(methylsulfonyl)phenyl)-2,4-dihydro-3H-pyrazol-3-one]
9 | 66 | 32 | 35 | CN1N=C(c2ccc(S(C)(=O)=O)c(N3CCNCC3)c2)C(C)(NO)C1=O (stereo not drawn) [Compound 93, 4-(Hydroxyamino)-3-[4-methanesulfonyl-3-(piperazin-1-yl)phenyl]-1,4-dimethyl-4,5-dihydro-1H-pyrazol-5-one]
10 | 11 | 16 | 12 | CC1=NN(C)C(=O)C1(NO)c1cccc(C)c1 (stereo not drawn) [Compound 98, 4-(Hydroxyamino)-1,3-dimethyl-4-(3-methylphenyl)-4,5-dihydro-1H-pyrazol-5-one]
11 | 17 | 59 | 43 | CN1N=C(c2cc(Cl)cc(Cl)c2)C(C)(NO)C1=O (stereo not drawn) [Compound 9, 5-(3,5-dichlorophenyl)-4-(hydroxyamino)-2,4-dimethyl-2,4-dihydro-3H-pyrazol-3-one]
12 | 34 | 117 | 104 | Cc1cc(C)cc(C2=NN(C)C(=O)C2(C)NO)c1 (stereo not drawn) [Compound 7, 5-(3,5-dimethylphenyl)-4-(hydroxyamino)-2,4-dimethyl-2,4-dihydro-3H-pyrazol-3-one]
13 | 21 | 40 | 12 | CO/N=C(\C)C1(NO)C(=O)N(C)N=C1C(C)(C)C (stereo not drawn) [Compound 10, 5-(tert-butyl)-4-(hydroxyamino)-4-(1-(methoxyimino)ethyl)-2-methyl-2,4-dihydro-3H-pyrazol-3-one]
